{
  "source": "patent US20140024716A1",
  "about": "“Composition Comprising S-Allyl-L-Cysteine as Active Ingredient for Preventing or Treating Gastrointestinal Disorders” (PHARMAKING CO., LTD., priority 2009, published 2014)",
  "key": {"TNF-α": {"system": "TNF-α", "test": "Serum TNF-α in Helicobacter pylori-infected mice", "format": "in vivo, C57BL/6 mice", "details": "SAC1 and SAC2 groups (200 and 400 mg/kg SAC), p<0.09", "experimental": "(§1) 8-week old male C57BL/6 mice were classified into 4 groups, i.e., a positive control group (to which Helicobacter pylori was administered; PC), a negative control group (to which saline was administered; NC), experimental group 1 (to which Helicobacter pylori and 200 mg/kg of SAC were administered; SAC1), and experimental group 2 (to which Helicobacter pylori and 400 mg/kg of SAC were administered; SAC2). Each group had 10 mice. White powdered SAC was diluted in tap water to concentrations of 20 mg/mL and 40 mg/mL and 10 μl/g (body weight) of the diluted SAC was orally administered to the mice of the SAC1 and SAC2 groups three times a week for 10 weeks. The mice were given free access to tap water for the entire test period. The Helicobacter pylori was collected with saline to a concentration of 1×10^9 CFU/mL, and 0.2 mL of the diluted Helicobacter pylori was orally administered to each mouse for 8 weeks from 2 weeks after SAC administration. […]\nIn order to observe the effect of SAC on an inflammation factor of TNF-α in serum, a commercially available mouse TNF-α antibody analysis kit Microplate (R&D systems Inc., USA) was used and concentrations of TNF-α in serum of mice were measured according to the manuals of the kit."}, "[1]": {"system": "gastric lesions of rats induced by indomethacin", "test": "Indomethacin-induced gastric lesion animal model", "format": "in vivo, Sprague-Dawley rats", "excerpt": "SAC was purchased from TCI Chemical Co. (Tokyo, Japan). Sterile water for injection (Model No. 73H5F21, Dae Han Pharmaceutical Co. Ltd.) was used as a vehicle, and Stillen® was used as a positive control material. 0.5% CMC-Na and sterile water for injection were used as excipients for Stillen®. Hydrochloric acid was purchased from Samjung Chemical, Co., ethanol was purchased from Baker, Co., aspirin was purchased from Sigma, Co., and indomethacin was purchased from Sigma, Co.\n7 to 8-week old male specific pathogen free (SPF) HsdKoat:Sprague-Dawley®™ SD®™rats (weight of 7-week old males was in the range of 208.44 to 227.39 g, and weight of 8-week old maleswas in the range of 223.85 to 245.03 g, purchased from Koatech, Co. Ltd., Gyunggido, Korea) were quarantined and acclimated in the Animal Lab for 7 days. The rats were bred at a temperature of 23 3° C., at a relative humidity of 55 15%, with light for 12 hours (light turned on at 08:00 and light turned off at 20:00) while air was ventilated 10 to 20 times/hr in the Animal Experiment Lab of Gyeonggi Bio-Center. Other environments for breeding which might influence the test for the entire test period were not considered for use. The rats were given free access to a solid laboratory diet (Harlan Co. Ltd., USA. Teklad certified global 18% protein rodent diet, 2918C) that was supplied by Folas International. […] The rats were given free access to tap water that was sterilized using a UV sterilizer and a micro filter with water bottles.\nThe rats were classified into a vehicle control group G1 to which only a vehicle was administered, a experimental group G2 to which 100 mg/kg of SAC was administered, a experimental group G3 to which 200 mg/kg of SAC was administered, a experimental group G4 to which 400 mg/kg of SAC was administered, and a positive control group G5 to which 100 mg/kg of Stillen® (55.6 mg/kg as an active ingredient) as a positive control material were administered. Each group included 8 rats in a hydrochloric acid-ethanol-induced animal model (Experiment Example 7) and included 6 rats in an aspirin-induced animal model (Experimental Example 8) and in an indomethacin-induced animal model (Experimental Example 9).\nThe test substance was directly administered to the stomach using an injection tube equipped with a sonde for oral administration in a single dose once per day.\nThe rats were fasted for more than 24 hours in a normal environment, SAC was administered, and 25 mg/kg of indomethacin in distilled water was orally administered after 30 minutes. After six hours from the indomethacin administration, the rats were sacrificed under ether anesthesia and their stomachs including parts of the duodenum and esophagus were isolated. The stomachs were fixed for 10 minutes by injecting 12 ml of 2% formalin, the greater curvature of each stomach was incised and unfolded, photographs of the lesions were taken, and then the areas of the lesions were measured using an image analyzer.\nThe gastric lesion inhibiting rate (%) was calculated in the same manner as in Experimental Example 8."}, "Helicobacter pylori": {"system": "Helicobacter pylori", "test": "Histological change of stomach caused by Helicobacter pylori (H&E staining)", "format": "in vivo, C57BL/6 mice", "experimental": "as §1, with “administration. The mice were fasted for 8 hours before the infection, and 0.15 mL of 0.2 M sodium bicarbonate (NaHCO3) was administered to each mouse 10 minutes before the administration of Helicobacter pylori in order to neutralize acidified stomach due to the fasting. The same amount of saline instead of the infectious substances was administered into the NC group. The mice of all groups were fed with a normal diet. After a 10-week test period, autopsies were performed on all mice, and samples of blood and internal organs were collected for tissue pathological analyses.” for “administration.”\nA stomach sample was fixed with 10% formalin and a paraffin block was formed. […] In addition, the number of eosinophils was checked from a region where the esophagus and stomach join and counted from three regions of the stomach, i.e., cardia, gastric pit, and gastric crypt of lamina propria. The number of mitotic figures was counted from two regions selected from the entire antrum from cardia to pylorus. Thus two samples were obtained from each animal and evaluated with a 400× magnification, and an average value of each group was calculated."}},
  "note": "“And” between values parts separate entries of the source, which are not always exact repeats. Equal values may be shown once. “Also recorded” adds a separate entry of the source.",
  "data": [
    {"smiles": "C=CCSC[C@H](N)C(=O)O", "note": "[SAC, S-allyl-L-cysteine]", "values": [
      {"measurement": "serum TNF-α versus PC group", "setting": "TNF-α", "result": "reduced; also recorded: less than that of the PC group"},
      {"measurement": "gross finding of stomach", "setting": "[1]; 200 mg/kg and 400 mg/kg SAC", "result": "light gastric lesions and no bleedings"},
      {"measurement": "Ulcer area of individual animal (Animal number 1-6)", "setting": "[1]; G2: 100 mg/kg SAC", "result": "1.3 and 1.6 and 1.5 and 9.4 and 2.3"},
      {"measurement": "Ulcer Area (mm^2), group mean", "setting": "[1]; G2: 100 mg/kg SAC oral, 30 min before 25 mg/kg indomethacin", "result": "3.2±3.47 mm^2 and 3.2 mm^2"},
      {"measurement": "Ulcer area of individual animal (Animal number 1-6)", "setting": "[1]; G3: 200 mg/kg SAC", "result": "0.0 and 0.3 and 0.9 and 0.6 and 0.7 and 0.4"},
      {"measurement": "Ulcer Area (mm^2), group mean", "setting": "[1]; G3: 200 mg/kg SAC, n = 6", "result": "0.5±0.30 mm^2 and 0.5 mm^2"},
      {"measurement": "Ulcer area of individual animal (Animal number 1-6)", "setting": "[1]; G4: 400 mg/kg SAC", "result": "0.8 and 0.4 and 0.1 (2×) and 0.2 and 1.0"},
      {"measurement": "Ulcer Area (mm^2), group mean", "setting": "[1]; G4: 400 mg/kg SAC, n = 6", "result": "0.4±0.36 mm^2 and 0.4 mm^2"},
      {"measurement": "gastric lesion inhibiting rate (%) up to", "setting": "[1]; highest rate over SAC doses", "result": "about 94%"},
      {"measurement": "number of eosinophils in stomach versus PC group", "setting": "Helicobacter pylori; SAC1 and SAC2 groups (200 and 400 mg/kg SAC)", "result": "significantly reduced; also recorded: less than that of the PC group"},
      {"measurement": "number of eosinophils in stomach versus PC group", "setting": "Helicobacter pylori; SAC1 group (200 mg/kg SAC), p<0.05", "result": "significantly less than that of the PC group"},
      {"measurement": "number of mitotic figures", "setting": "Helicobacter pylori; SAC2 group (400 mg/kg SAC)", "result": "slightly reduced"}
    ]}
  ]
}
